Consider three compounds from patent publication EP0353827A2, “New immunosuppressant-producing culture” (MERCK & CO. INC., priority 1988, dated 1990).

The subject of this assay is mouse T lymphocytes stimulated with the combination of ionomycin plus PMA. The experiment in a line: T-cell proliferation assay (ionomycin plus PMA induced T-cell stimulation, tritiated thymidine uptake). The format is cell-based. To be noted: for immunosuppressive activity, inhibition of T-cell activation: qualitative statement.

Excerpt: The principle of this assay is to measure the proliferation of mouse T lymphocytes stimulated with the combination of ionomycin plus PMA. A positive sample in this assay will inhibit T-cell proliferation, as indicated by reduced tritiated thymidine uptake.
Spleens from C57B1/6 mice were taken under sterile conditions and gently dissociated in ice-cold RPMI 1640 culture medium (GIBCO, Grand Island, N.Y.) supplemented with 10% heat-inactivated fetal calf serum (GIBCO). Cells were pelleted by centrifugation at 1500 rpm for 8 minutes. Contaminating red cells were removed by treating the pellet with ammonium chloride lysing buffer (GIBCO) for 2 minutes at 4°C. Cold medium was added and cells were again centrifuged at 1500 rpm for 8 minutes. T lymphocytes were then isolated by separation of the cell suspension on nylon wool columns as follows: Nylon wool columns were prepared by packing approximately 4 grams of washed and dried nylon wool into 20 ml plastic syringes. The columns were sterilized by autoclaving at 250°F for 30 minutes. Nylon wool columns were wetted with warm (37°C) culture medium and rinsed with the same medium. Washed spleen cells resuspended in warm medium were slowly applied to the nylon wool. The columns were then incubated in an upright position at 37°C for 1 hour. Non-adherent T lymphocytes were eluted from the columns with warm culture medium and the cell suspensions were spun as above.
Purified T lymphocytes were resuspended at 2.5 x 10⁵ cells/ml in complete culture medium composed of RPMI 1640 medium with 10% heat-inactivated fetal calf serum, 100 mM glutamine, 1 mM sodium pyruvate, 2 x 10⁻⁵ M 2-mercaptoethanol and 50 µg/ml gentamycin. Ionomycin was added at 250 ng/ml and PMA at 10 ng/ml. The cell suspension was immediately distributed into 96 well flat-bottom microculture plates (Costar) at 200 µl/well. […] L-679,934 was used as a standard. The culture plates were then incubated at 37°C in a humidified atmosphere of 5% CO₂-95% air for 44 hours. The proliferation of T lymphocytes was assessed by measurement of tritiated thymidine incorporation. After 44 hours of culturing, the cells were pulse-labelled with 2 µCi/well of tritiated thymidine (NEN, Cambridge, MA). After another 4 hours of incubation, cultures were harvested on glass fiber filters using a multiple sample harvester. Radioactivity of filter discs corresponding to individual wells was measured by standard liquid scintillation counting methods (Betacounter). Mean counts per minute of replicate wells were calculated and the results expressed as percent inhibition of tritiated thymidine uptake (proliferation) as follows: [formula]
Purified T lymphocytes were resuspended at 2.5 x 10⁵ cells/ml in complete culture medium composed of RPMI 1640 medium with 10% heat-inactivated fetal calf serum, 100 mM glutamine, 1 mM sodium pyruvate, 2 x 10⁻⁵ M 2-mercaptoethanol and 50 µg/ml gentamycin. Ionomycin was added at 250 ng/ml and PMA at 10 ng/ml. The cell suspension was immediately distributed into 96 well flat-bottom microculture plates (Costar) at 200 µl/well. […] L-679,934 was used as a standard. The culture plates were then incubated at 37°C in a humidified atmosphere of 5% CO₂-95% air for 44 hours. The proliferation of T lymphocytes was assessed by measurement of tritiated thymidine incorporation. After 44 hours of culturing, the cells were pulse-labelled with 2 µCi/well of tritiated thymidine (NEN, Cambridge, MA). After another 4 hours of incubation, cultures were harvested on glass fiber filters using a multiple sample harvester.

Consider `C=CC[C@@H]1/C=C(\C)C[C@H](C)C[C@H](OC)[C@H]2O[C@@](O)(C(=O)C(=O)N3CCCC[C@H]3C(=O)O[C@H](/C(C)=C/[C@@H]3CC[C@@H](O)[C@H](OC)C3)[C@H](C)[C@@H](O)CC1=O)[C@H](C)C[C@@H]2OC` [L-679,934, reference compound], for which the inhibition (commonly the drop in the measured response relative to a control, in per cent) at 0.01 µg/mL (Mus musculus, T-lymphocyte, 10 ng/ml, ³H-thymidine pulse 4 hours, harvest at 48 hours) was 99%.

With `CC[C@@H]1/C=C(\C)C[C@H](C)C[C@H](OC)[C@H]2O[C@@](O)(C(=O)C(=O)N3CCCC[C@H]3C(=O)O[C@H](/C(C)=C/[C@@H]3CC[C@@H](O)[C@H](O)C3)[C@H](C)[C@@H](O)CC1=O)[C@H](C)C[C@@H]2OC` [demethimmunomycin, 31-desmethoxy-31-hydroxy-L-683,590], the “immunosuppressive activity, inhibition of T-cell activation” value is “positive inhibition of T-cell activation”. Moreover, for the setting “0.6 ng/ml, ³H-thymidine pulse 4 hours, harvest at 48 hours”, the % Inhibition (usually the percentage by which the read-out fell short of the control) is 0%. In addition, the “% Inhibition” value (0.9 ng/ml, ³H-thymidine pulse 4 hours, harvest at 48 hours) turned out to be 9.0%. The “% Inhibition” value (1.3 ng/ml, ³H-thymidine pulse 4 hours, harvest at 48 hours) is on record as 38.2%. The “% Inhibition” value (1.9 ng/ml, ³H-thymidine pulse 4 hours, harvest at 48 hours) was found to be 72.1%. The “% Inhibition” value (2.9 ng/ml, ³H-thymidine pulse 4 hours, harvest at 48 hours) is 86.3%. Moreover, under “4.4 ng/ml, ³H-thymidine pulse 4 hours, harvest at 48 hours”, the “% Inhibition” value was found to be 91.9%. Moreover, for the setting “6.6 ng/ml, ³H-thymidine pulse 4 hours, harvest at 48 hours”, the “% Inhibition” value came to 97.9%. Also, where the note is “10 ng/ml, ³H-thymidine pulse 4 hours, harvest at 48 hours”, the “% Inhibition” value stood at 98.6%.

Consider `C=CC[C@@H]1/C=C(\C)C[C@H](C)C[C@H](OC)[C@H]2O[C@@](O)(C(=O)C(=O)N3CCCC[C@H]3C(=O)O[C@H](/C(C)=C/[C@@H]3CC[C@@H](O)[C@H](O)C3)[C@H](C)[C@@H](O)CC1=O)[C@H](C)C[C@@H]2OC` [demethomycin, 31-desmethoxy-31-hydroxy-L-679,934], for which the “immunosuppressive activity, inhibition of T-cell activation” value is “positive inhibition of T-cell activation”. Further, for the setting “0.29 ng/ml, ³H-thymidine pulse 4 hours, harvest at 48 hours”, the “% Inhibition” value was 0%. The “% Inhibition” value (0.44 ng/ml, ³H-thymidine pulse 4 hours, harvest at 48 hours) worked out at 0%. In addition, the “% Inhibition” value (0.66 ng/ml, ³H-thymidine pulse 4 hours, harvest at 48 hours) was 36.8%. Under “0.99 ng/ml, ³H-thymidine pulse 4 hours, harvest at 48 hours”, the “% Inhibition” value is 67.1%. For the same compound, the “% Inhibition” value (1.5 ng/ml, ³H-thymidine pulse 4 hours, harvest at 48 hours) was determined as 80.5%. Further, under “2.2 ng/ml, ³H-thymidine pulse 4 hours, harvest at 48 hours”, the “% Inhibition” value is 92.9%. Under “3.3 ng/ml, ³H-thymidine pulse 4 hours, harvest at 48 hours”, the “% Inhibition” value is recorded as 97.2%. In addition, the “% Inhibition” value (5 ng/ml, ³H-thymidine pulse 4 hours, harvest at 48 hours) is reported as 98.1%.
